pKi: −log10 of the molar value. Read-outs that look alike come from different tables or passages of the source.
Tests used:
[1] = molecular target: KOR Q115N (Homo sapiens, UniProt P41145, Q115N); assay: cell-based; parameters: TEV cleavage site (C); tTA transcription factor (C); expressed in transfected cells; host or cells: HTLA cells; conditions: read-out: Tango response (Figure S4C), KOR Q115N, Log [Drug], replicate values
[2] = molecular target: DOR (Homo sapiens, UniProt P41143); assay: Radioligand competition binding (3H-Diprenorphine)
Sequence of DOR (P41143 whole entry): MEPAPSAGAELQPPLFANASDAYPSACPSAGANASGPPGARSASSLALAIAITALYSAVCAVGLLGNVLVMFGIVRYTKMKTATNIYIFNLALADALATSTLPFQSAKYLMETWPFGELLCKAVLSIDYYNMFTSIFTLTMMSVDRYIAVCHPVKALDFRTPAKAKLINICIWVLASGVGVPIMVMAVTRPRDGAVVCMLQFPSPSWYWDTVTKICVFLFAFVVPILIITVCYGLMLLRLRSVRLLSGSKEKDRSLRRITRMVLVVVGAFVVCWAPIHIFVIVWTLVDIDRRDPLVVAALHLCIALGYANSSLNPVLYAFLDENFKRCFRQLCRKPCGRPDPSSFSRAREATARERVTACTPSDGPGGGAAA

[3] = molecular target: T1, human KOR (Gi2) (Homo sapiens, UniProt P41145, Y320L); assay: cell-based
T1 construct: expressed in transfected cells; host or cells: HEK293T
T1 sequence (P41145 whole entry Y320L): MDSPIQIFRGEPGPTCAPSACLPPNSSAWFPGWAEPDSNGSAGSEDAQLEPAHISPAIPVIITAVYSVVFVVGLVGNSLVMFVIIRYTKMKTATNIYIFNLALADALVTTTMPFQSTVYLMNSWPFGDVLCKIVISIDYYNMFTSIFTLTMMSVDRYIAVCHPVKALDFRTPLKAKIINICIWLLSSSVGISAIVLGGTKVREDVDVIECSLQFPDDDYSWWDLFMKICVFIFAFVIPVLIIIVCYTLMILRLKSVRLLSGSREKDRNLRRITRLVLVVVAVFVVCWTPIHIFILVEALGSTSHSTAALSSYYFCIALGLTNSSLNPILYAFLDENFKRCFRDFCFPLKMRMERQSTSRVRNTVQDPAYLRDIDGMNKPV

[4] = molecular target: T2, human KOR (Gi2) (Homo sapiens, UniProt P41145); assay: cell-based
T2 construct: expressed in transfected cells; host or cells: HEK293T
T2 sequence (P41145 whole entry): as the sequence (P41145 whole entry Y320L) above, with L320Y counted along it

[5] = molecular target: T3, human KOR (Gi2) (Homo sapiens, UniProt P41145, G319L); assay: cell-based
T3 construct: expressed in transfected cells; host or cells: HEK293T
T3 sequence (P41145 whole entry G319L): as the sequence (P41145 whole entry Y320L) above, with G319L, L320Y counted along it

[6] = molecular target: T4, human KOR (Gi2) (Homo sapiens, UniProt P41145, T94V); assay: cell-based
T4 construct: expressed in transfected cells; host or cells: HEK293T
T4 sequence (P41145 whole entry T94V): as the sequence (P41145 whole entry Y320L) above, with T94V, L320Y counted along it

[7] = molecular target: T5, human KOR (Gi2) (Homo sapiens, UniProt P41145, F114L); assay: cell-based
T5 construct: expressed in transfected cells; host or cells: HEK293T
T5 sequence (P41145 whole entry F114L): as the sequence (P41145 whole entry Y320L) above, with F114L, L320Y counted along it

[8] = molecular target: T6, human KOR (Gi2) (Homo sapiens, UniProt P41145, Q115N); assay: cell-based
T6 construct: expressed in transfected cells; host or cells: HEK293T
T6 sequence (P41145 whole entry Q115N): as the sequence (P41145 whole entry Y320L) above, with Q115N, L320Y counted along it

[9] = molecular target: T7, human KOR (Gi2) (Homo sapiens, UniProt P41145, F283A); assay: cell-based
T7 construct: expressed in transfected cells; host or cells: HEK293T
T7 sequence (P41145 whole entry F283A): as the sequence (P41145 whole entry Y320L) above, with F283A, L320Y counted along it

Sequence of KOR Q115N (P41145 whole entry Q115N): as the sequence (P41145 whole entry Y320L) above, with Q115N, L320Y counted along it
Sequence of KOR Q115N (P32121 whole entry partner): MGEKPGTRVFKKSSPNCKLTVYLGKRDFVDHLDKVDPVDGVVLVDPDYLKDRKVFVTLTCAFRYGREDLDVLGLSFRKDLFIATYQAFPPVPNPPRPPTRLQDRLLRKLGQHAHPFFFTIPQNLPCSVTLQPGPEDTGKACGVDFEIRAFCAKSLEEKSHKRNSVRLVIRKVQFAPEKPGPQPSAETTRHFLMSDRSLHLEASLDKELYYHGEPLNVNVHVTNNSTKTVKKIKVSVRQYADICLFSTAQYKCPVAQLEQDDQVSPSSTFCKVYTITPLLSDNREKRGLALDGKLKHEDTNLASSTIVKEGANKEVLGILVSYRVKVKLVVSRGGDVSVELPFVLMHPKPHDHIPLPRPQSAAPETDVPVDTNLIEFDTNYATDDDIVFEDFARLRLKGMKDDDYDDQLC

CN(C(=O)/C=C/c1ccoc1)[C@@H]1CC[C@@]2(O)[C@H]3Cc4ccc(O)c5c4[C@@]2(CCN3CC2CC2)[C@H]1O5 [Nalfurafine, nalfurafine]
activation at 10 µM ([1]; M -5): 106%
activation at […] ([1]; M -6.5): 92.3%
activation at 0.1 µM ([1]; M -7): 92.6%
activation at […] ([1]; M -7.5): 76.8%
activation at 0.01 µM ([1]; M -8): 80.2%
activation at […] ([1]; M -8.5): 39%
pKi [2]: 9.37
FC vs wild type [3]: 186
Emax ([3]; HEK-293T): 89.3%
Emax% [4]: 101%
FC vs wild type [4]: 1
Emax ([4]; HEK-293T): 101%
FC vs wild type [5]: 17
Emax ([5]; HEK-293T): 116%
FC vs wild type [6]: 2
Emax ([6]; HEK-293T): 95.8%
FC vs wild type [7]: 18
Emax ([7]; HEK-293T): 56.9%
FC vs wild type [8]: 24
Emax ([8]; HEK-293T): 60%
FC vs wild type [9]: 7
Emax ([9]; HEK-293T): 79%

Reference: publication PMC10008561 (Nature Communications, 2023)
